# Assays:
# SLE-prone MRL/lpr mice = test: SLE disease progression in MRL/lpr mice (skin, spleen, kidney, thymus, proteinuria, histology, body weight); assay type: in vivo, mouse
# Description: Briefly, female MRL/MpJ-fas lpr (MRL/lpr), MRL/Mpj and C57BL/6J mice were purchased from the Jackson Laboratory (Bar Harbor, Me.). For experiments, mice within each group were ip injected with either vehicle (DMSO) or the SHP2 inhibitor (7.5 mg/kg/per day). Testing continued for a period of 6 weeks, starting at 11 weeks of age to 17 weeks. Body weight was measured daily and treatment dosage was adjusted accordingly. At the end of the treatment period, mice were sacrificed with CO2 exsanguination and SLE targeted organs were removed. For each mouse, spleen, kidney, and heart weight were calculated. In addition, total animal body weight and tibia length were measured. Peripheral blood/serum was also collected for use in the cytokine assays described below.
# (§1) Harvested organs (kidney, spleen, and heart) to be used to assess morphometry and histochemistry were flushed with PBS, perfusion fixed in Bouin's reagent, and paraffin embedded. Sections (5 μm) were stained with Hematoxylin and Eosin (H&E), Periodic acid—Schiff stain (PAS), Masson-Trichrome, or reticulin staining at the Harvard Medical School Rodent Histopathology Core and scored using an unbiased approach, in which histology scores of 1 (normal) to 5 (most severe pathology) were designated to tissue sections which were only numerically labeled and in no particular order (by Dr. Roderick Bronson, director of the Rodent Histopathology Core, Harvard Medical School). Numerical sections were later decoded, marked for their designated score, and statistically analyzed. Images of the tissue sections were obtained and quantified on a Keyence BZ-9000 Microscope (Keyence Corporation, Itasca, Ill.).
# To determine kidney function, urine was collected before mice were sacrificed. Albumin and creatinine in the urine were measured using colorimetric assays according to the manufacturer's instructions (Albuwell M; The creatinine companion, Exocell), as described below. The kidney function was calculated as ratio of albumin to creatinine levels.
# Albumin and creatinine levels: For the albumin assay, collected mouse urine was diluted at 1:5200× and 50 μl was loaded onto an albumin precoated 96-well plate, followed by primary incubation, secondary incubation and colorimetric determination. For the creatinine assay, the urine was diluted 20× and loaded onto a 96-well plate, and picrate working solution and acid reagent were added sequentially according to protocol. Absorbance was assayed using a plate reader set at a wavelength of 495 nm.
# To determine whether inhibition of SHP2 activity affected SLE disease progression, each of the SLE target tissues (i.e., skin, kidney, spleen) was tested in both treated and untreated SLE-prone mice. Particularly, tissues were tested as: WT treated with inhibitor, WT treated with DMSO (vehicle), MRL/mpJ treated with inhibitor, MRL/mpf treated with DMSO (vehicle), MRL/lpr treated with inhibitor, and MRL/lpr treated with DMSO (vehicle).
# [1] = test system: MRL/lpr mouse spleen immune cells; test: Cellular immune response in spleen (histology, flow cytometry); assay type: in vivo
# Source text: as §1
# Spleens were cut into 2 to 3 pieces each and homogenized on a 70 μm nylon mesh in 5 ml of HBSS buffer. The cells were filtered through a 70 μm nylon mesh to a new 50 ml tube and centrifuged at 2000 rpm for 5 minutes at room temperature. […]
# To identify immune cell subsets, isolated cells from tissues were immunostained with mouse antibodies targeted against CD3E (145-2C11, BioLegend, San Diego, Calif.), CD4 (GK1.5, BioLegend), CD8 (53-6.7, eBioscience, San Diego, Calif.), CD45 (30-F11, eBioscience), CD 19 (6125, BioLegend), CD11b (M1170, BioLegend), TCRαβ (H57-597, BioLegend), CD44 (IM7, BioLegend), B220 (RA3-6B2, B.D. […], BD Biosciences, San Jose Calif.), CD138 (281-2, BioLegend), CD38 (CD28.2, BioLegend), Gr-1 (RB6.805, eBioscience), CD62L (DREG-56, BioLegend), and CD25 (PC61, BioLegend) for 30 minutes at 4° C. Samples were acquired on a LSR II flow cytometer (BD Biosciences) and the percentage of each sub-population of cells (B, T, monocytes, macrophage and neutrophils) was assessed by FlowJo [version 7.2.2 (Tree Star)]. Total cell numbers were counted using a hemocytometer. Absolute cell numbers for each sub-population were calculated based on the percentage of each population. […]
# [2] = MRL/lpr mice, treatment for 6 weeks
smiles,measurement,setting,value
Cn1c(-c2cccc(NC(=O)C(=O)Nc3ccc(-c4ccsc4)cc3)c2)c(I)c2cc(C(=O)O)c(O)cc21 [11a-1],cytotoxic effects during the treatment period,SLE-prone MRL/lpr mice; 7.5 mg/kg/day,no obvious cytotoxic effects
same,"SLE-related disease phenotype in the kidney (histology: glomerulonephritis, fibrosis, immune cell infiltration)",SLE-prone MRL/lpr mice; MRL/lpr mice,prevented the development of this SLE-related disease phenotype in the kidney
same,unbiased histopathological scoring of kidney,SLE-prone MRL/lpr mice; MRL/lpr mice,quantifiably prevented the development of SLE-related disease phenotype
same,kidney size,SLE-prone MRL/lpr mice; [2],normalized the kidney to a size
same,splenomegaly (spleen size and weight),SLE-prone MRL/lpr mice; [2],reduced splenomegaly
same,PAS staining of kidney tissue,SLE-prone MRL/lpr mice; SLE kidneys,"decreased inflammatory infiltration in the tissue, smaller glomeruli, decreased fibrosis, and decreased numbers of mesangial cells surrounding the glomerulus"
same,proteinuria,SLE-prone MRL/lpr mice; SLE mice vs vehicle-treated,significant reduction in proteinuria
same,thymus size,SLE-prone MRL/lpr mice; SLE-prone mice,decreased thymus size
same,skin lesions/inflammation,"SLE-prone MRL/lpr mice; SLE-prone mice, 7.5 mg/kg/day",reduced the skin lesions/inflammation
same,body weight during treatment period,"SLE-prone MRL/lpr mice; mice, 7.5 mg/kg/day ip",no change in body weight
same,overall splenic T cell counts,[1]; MRL/lpr mice,overall splenic T cell counts were reduced
same,"splenic CD4, CD8 and double-negative T cells",[1]; MRL/lpr mice,"significant reduction in CD4, CD8, and double-negative T cells"
same,germinal center formation in the spleen,[1]; MRL/lpr mice vs vehicle,greatly reduced

# Source: US9844535B2, “SHP2 inhibitors and methods of treating autoimmune and/or glomerulonephritis-associated diseases using SHP2 inhibitors” (Indiana University Research and Technology Corporation, priority 2013, dated 2017)
